Results published in US20160106813A1 (CENTRE NATIONAL DE LA RECHERCHE SCHIENTIFIQUE (CNRS), priority 2013, published 2016).
Ends that are not written are not given here.

Legend:
HIV-1 JRCSF = assay: HIV-1 transfer from monocyte-derived Langerhans cells (MDLC) to CD4+ T-cells, p24 ELISA of co-culture supernatants; format: cell-based
Description: Peripheral blood mononuclear cells (PBMCs) from healthy donors were separated from whole blood by a standard Ficoll gradient. CD14+ monocytes and CD4+ TCs were obtained from PBMCs by negative magnetic selection (Stemcell Technologies, Grenoble, France) according to the manufacturer's instructions. MDLC were prepared and maintained as described (Masterson et al., Blood 100:701-703; Geissmann et al., J Exp Med 187:961-966.)

CCL3/MIP-1α = CCL3/MIP-1α levels in LC-TC co-culture supernatants, multiplex assay and flow cytometry; format: cell-based, human; details: highest concentration of BAY117082, n=4
HIV-1 = details: agent added during co-culture; dose-dependent
Description: Normal goat IgG, neutralizing CCL3/MIP-1α goat Ab (R&D systems, Minneapolis, Minn., USA), or the NFκB inhibitor BAY117082 (Santa Cruz Biotechnology, Santa Cruz, Calif., USA), were included during the co-culture period (MDLC-TC) described previously. HIV-1 replication was measured in the co-culture supernatants a week later by p24 ELISA (Innotest; Innogenetics, Gent, Belgium).

For “Ala-Cys-Asn-Thr-Ala-Thr-Cys-Val-Thr-His-Arg-Leu-Ala-Gly-Leu-Leu-Ser-Arg-Ser-Gly-Gly-Met-Val-Lys-Ser-Asn-Phe-Val-Pro-Thr-Asn-Val-Gly-Ser-Lys-Ala-Phe-NH2 (ACNTATCVTHRLAGLLSRSGGMVKSNFVPTNVGSKAF-NH2; ends and bridges not checked) [beta CGRP]”, the “HIV-1 transfer from Langerhans cells to TCs (in words)” value (HIV-1 JRCSF; MDLCs pretreated with the peptide, pulsed with HIV-1 JRCSF (R5), co-cultured a week with CD4+ TCs) was “inhibit HIV-1 transfer”.
For “CGRP8-37: truncated CGRP receptor antagonist (VTHRLAGLLSRSGGVVKNNFVPTNVGSKAF; ends and bridges not checked; UniProt P06881 90-119, looked up, fragment)”, the “effect on the inhibitory effect of CGRP on HIV-1 transfer” value (HIV-1 JRCSF; 1000 nM CGRP8-37 added 10 min before CGRP) was “completely abrogated”.
`Cc1ccc(S(=O)(=O)/C=C/C#N)cc1` [BAY117082] was tested, and the “CGRP-induced CCL3/MIP-1α secretion in presence of inhibitor, mean±s.e.m fold” value (CCL3/MIP-1α) was 1.0±0.1 fold and the “effect on CGRP-mediated HIV-1 transfer inhibition” value (HIV-1) was “abrogated”.
